Reference: ChEMBL document CHEMBL3867477 (Bioorg Med Chem Lett, 2016)

Tests used:
CHO = experiment: Selectivity index, ratio of Ki for human OX2 receptor expressed on CHO cell membrane to Ki for Ile408-Val variant human OX1 receptor expressed on CHO cell membrane; type: cell-based
[1] = Solubility of the compound; type: physicochemical
[2] = Displacement of (2S)-N-(2-phenylphenyl)-1-[2-[1-(tritritiomethyl)benzimidazol-2-yl]sulfanylacetyl]pyrrolidine-2-carboxamide from human OX1 receptor Ile408-Val mutant expressed on CHO cell membrane measured after 3 hrs by TopCount method; type: cell membranes
Orexin receptor type 2 = target: T1, Orexin receptor type 2 (Homo sapiens, UniProt O43614); experiment: Displacement of (2S)-N-(2-pyrrol-1-ylphenyl)-1-[2-[1-(tritritiomethyl)benzimidazol-2-yl]sulfanylacetyl]pyrrolidine-2-carboxamide from human OX2 receptor expressed on CHO cell membrane measured after 3 hrs by TopCount method; type: cell membranes
T1 sequence (O43614 whole entry): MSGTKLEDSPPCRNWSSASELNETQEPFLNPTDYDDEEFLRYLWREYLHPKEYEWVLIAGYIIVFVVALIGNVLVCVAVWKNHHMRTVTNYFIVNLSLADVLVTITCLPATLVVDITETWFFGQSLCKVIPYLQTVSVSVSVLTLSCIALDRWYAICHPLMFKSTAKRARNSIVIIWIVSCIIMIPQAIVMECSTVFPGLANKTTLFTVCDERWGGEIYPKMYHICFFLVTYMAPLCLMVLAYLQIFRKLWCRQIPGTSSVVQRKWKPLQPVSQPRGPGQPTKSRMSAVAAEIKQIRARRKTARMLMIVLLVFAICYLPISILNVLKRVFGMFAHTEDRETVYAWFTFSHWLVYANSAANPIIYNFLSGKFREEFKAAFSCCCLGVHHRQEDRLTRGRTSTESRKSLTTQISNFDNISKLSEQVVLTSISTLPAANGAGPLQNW

Cytochrome P450 2C9 = Cytochrome P450 2C9 (Homo sapiens, UniProt P11712); experiment: Inhibition of CYP2C9 (unknown origin); type: ADME
Cytochrome P450 3A4 = Cytochrome P450 3A4 (Homo sapiens, UniProt P08684); experiment: Inhibition of CYP3A4 (unknown origin); type: ADME
[3] = target: Voltage-dependent L-type calcium channel subunit alpha-1C (Homo sapiens, UniProt Q13936); experiment: Inhibition of Cav1.2 (unknown origin)
Voltage-dependent L-type calcium channel subunit alpha-1C, sequence (Q13936 whole entry): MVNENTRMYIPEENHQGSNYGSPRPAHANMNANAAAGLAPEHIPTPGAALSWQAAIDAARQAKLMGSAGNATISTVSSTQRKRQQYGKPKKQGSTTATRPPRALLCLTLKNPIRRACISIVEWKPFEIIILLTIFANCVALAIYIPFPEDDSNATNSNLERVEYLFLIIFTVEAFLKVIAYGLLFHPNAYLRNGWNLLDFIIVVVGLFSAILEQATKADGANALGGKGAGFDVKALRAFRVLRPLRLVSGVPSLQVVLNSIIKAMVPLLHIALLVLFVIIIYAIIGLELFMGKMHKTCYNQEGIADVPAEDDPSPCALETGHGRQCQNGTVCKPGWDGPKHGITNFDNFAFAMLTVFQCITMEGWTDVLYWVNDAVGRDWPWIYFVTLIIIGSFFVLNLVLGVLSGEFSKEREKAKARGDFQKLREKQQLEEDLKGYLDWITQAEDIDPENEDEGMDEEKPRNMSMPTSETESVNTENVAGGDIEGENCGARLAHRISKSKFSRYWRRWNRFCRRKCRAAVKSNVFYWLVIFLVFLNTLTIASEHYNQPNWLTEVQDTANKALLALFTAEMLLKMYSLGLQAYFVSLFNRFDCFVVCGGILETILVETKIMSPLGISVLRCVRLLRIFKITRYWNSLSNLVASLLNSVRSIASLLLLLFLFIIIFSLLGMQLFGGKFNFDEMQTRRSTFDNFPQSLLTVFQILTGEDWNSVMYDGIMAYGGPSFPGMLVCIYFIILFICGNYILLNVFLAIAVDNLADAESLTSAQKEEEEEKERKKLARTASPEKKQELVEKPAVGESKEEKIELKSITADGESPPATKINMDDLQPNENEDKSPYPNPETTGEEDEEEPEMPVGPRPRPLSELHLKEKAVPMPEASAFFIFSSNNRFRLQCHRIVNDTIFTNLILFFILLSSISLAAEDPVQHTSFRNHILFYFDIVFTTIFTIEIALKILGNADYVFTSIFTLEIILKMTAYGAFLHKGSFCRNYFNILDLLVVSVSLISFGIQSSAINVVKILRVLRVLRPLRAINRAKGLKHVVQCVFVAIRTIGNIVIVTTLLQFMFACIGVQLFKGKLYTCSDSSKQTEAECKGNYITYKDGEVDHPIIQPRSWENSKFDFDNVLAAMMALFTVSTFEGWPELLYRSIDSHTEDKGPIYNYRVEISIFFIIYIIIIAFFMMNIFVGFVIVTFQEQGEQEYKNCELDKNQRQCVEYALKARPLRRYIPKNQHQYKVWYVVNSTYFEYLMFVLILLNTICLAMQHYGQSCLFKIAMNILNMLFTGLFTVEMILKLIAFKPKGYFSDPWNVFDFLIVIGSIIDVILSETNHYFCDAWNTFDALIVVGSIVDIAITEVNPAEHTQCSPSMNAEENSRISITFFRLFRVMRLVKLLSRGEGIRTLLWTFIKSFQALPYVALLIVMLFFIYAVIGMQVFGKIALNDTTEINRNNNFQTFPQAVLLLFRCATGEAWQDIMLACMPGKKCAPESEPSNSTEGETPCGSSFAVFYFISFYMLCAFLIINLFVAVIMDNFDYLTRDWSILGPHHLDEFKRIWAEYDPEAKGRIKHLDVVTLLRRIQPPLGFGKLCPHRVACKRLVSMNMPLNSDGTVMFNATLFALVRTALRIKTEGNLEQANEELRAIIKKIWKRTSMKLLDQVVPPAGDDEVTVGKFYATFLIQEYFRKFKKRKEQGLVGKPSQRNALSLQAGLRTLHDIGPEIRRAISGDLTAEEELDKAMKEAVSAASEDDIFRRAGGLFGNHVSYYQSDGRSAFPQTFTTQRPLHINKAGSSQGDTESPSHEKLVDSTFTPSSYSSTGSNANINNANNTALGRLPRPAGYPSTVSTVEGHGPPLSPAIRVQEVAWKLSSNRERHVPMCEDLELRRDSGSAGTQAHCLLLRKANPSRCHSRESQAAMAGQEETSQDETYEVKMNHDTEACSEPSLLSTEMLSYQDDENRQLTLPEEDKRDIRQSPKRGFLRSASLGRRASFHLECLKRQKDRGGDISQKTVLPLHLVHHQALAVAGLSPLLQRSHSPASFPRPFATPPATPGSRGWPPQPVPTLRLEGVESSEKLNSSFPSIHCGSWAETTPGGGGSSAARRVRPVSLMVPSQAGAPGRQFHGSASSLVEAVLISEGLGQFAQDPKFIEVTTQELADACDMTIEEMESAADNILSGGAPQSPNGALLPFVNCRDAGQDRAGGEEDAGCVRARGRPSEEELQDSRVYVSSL

Cytochrome P450 2C9, sequence (P11712 whole entry): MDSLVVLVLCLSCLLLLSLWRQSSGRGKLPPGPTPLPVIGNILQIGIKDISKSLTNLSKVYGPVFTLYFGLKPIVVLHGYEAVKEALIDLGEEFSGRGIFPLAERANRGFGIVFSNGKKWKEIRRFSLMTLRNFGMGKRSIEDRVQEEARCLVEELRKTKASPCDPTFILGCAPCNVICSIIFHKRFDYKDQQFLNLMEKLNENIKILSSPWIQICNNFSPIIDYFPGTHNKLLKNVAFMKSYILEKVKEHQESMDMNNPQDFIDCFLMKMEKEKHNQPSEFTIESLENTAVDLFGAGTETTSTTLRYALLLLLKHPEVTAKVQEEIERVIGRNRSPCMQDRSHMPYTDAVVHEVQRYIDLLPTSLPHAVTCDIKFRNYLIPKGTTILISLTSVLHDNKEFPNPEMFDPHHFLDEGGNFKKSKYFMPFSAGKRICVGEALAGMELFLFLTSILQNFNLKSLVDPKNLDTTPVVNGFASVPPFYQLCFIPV
Cytochrome P450 3A4, sequence (P08684 whole entry): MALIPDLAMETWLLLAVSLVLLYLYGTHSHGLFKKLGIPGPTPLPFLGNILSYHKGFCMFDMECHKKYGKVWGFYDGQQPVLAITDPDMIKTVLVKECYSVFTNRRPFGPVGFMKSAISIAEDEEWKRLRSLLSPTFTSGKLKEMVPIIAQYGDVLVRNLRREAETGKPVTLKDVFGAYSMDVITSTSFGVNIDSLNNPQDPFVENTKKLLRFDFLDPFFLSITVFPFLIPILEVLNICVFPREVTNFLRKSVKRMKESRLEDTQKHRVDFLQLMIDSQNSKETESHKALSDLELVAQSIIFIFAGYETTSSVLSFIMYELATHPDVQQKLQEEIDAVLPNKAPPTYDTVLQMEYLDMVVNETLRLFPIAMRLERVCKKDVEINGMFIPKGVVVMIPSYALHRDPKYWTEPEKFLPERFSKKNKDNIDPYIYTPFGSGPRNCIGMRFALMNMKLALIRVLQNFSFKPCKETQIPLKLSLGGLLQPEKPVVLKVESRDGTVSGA

| SMILES | solubility [1] | Ki (Orexin receptor type 2) [nM] | inhibition (INH) (Cytochrome P450 2C9) | inhibition (INH) (Cytochrome P450 3A4) | INH (Cytochrome P450 2C9) [µM] | INH (Cytochrome P450 3A4) [µM] | Ratio Ki (CHO) | Ki [2] [nM] | inhibition (INH) [3] |
| --- | --- | --- | --- | --- | --- | --- | --- | --- | --- |
| O=C(c1ccccc1-n1nccn1)N1CCC(F)(F)C(Oc2nc3ccccc3o2)C1 (stereo unspecified) | Insoluble | 467 | Active | Active |  |  | 9.5 | 49 | Active |
| O=C(c1cccc(-n2nccn2)c1)N1CCC(F)(F)[C@@H](Oc2ccc3ccccc3n2)C1 |  | 871 |  |  |  |  | 104 | 8.3 |  |
| COc1ccc(C[C@H]2c3cc(OC)c(OC)cc3CCN2[C@@H](C(=O)NC(C)C)c2ccccc2)cc1OC |  |  |  |  |  |  |  | 6 |  |
| O=C(c1cccc(-n2cccn2)c1)N1CCC(F)(F)[C@@H](Oc2ccc3ccccc3n2)C1 |  | 627 |  |  |  |  | 570 | 1.1 |  |
| O=C(c1ccccc1)N1CCC(F)(F)C(Oc2ccc3ccccc3n2)C1 (racemic) | Insoluble | > 12700 | Active | Active |  |  | > 230 | 55 | Active |
| COc1cccc(C(=O)N2CCC(F)(F)C(Oc3ccc4ccccc4n3)C2)c1 (racemic) | Insoluble | > 4380 | Active | Active |  |  | > 481 | 9.1 | Active |
| O=C(c1cccc(F)c1)N1CCC(F)(F)C(Oc2ccc3ccccc3n2)C1 (racemic) | Insoluble | > 4380 | Active | Active |  |  | > 48 | 91 | Active |
| O=C(c1ccccc1-n1nccn1)N1CCC(F)(F)C(Oc2cccc(C(F)(F)F)n2)C1 (stereo unspecified) | Insoluble | 907 | Active | Active |  |  | 3.8 | 240 | Active |
| O=C(c1cccn2cncc12)N1CCC(F)(F)C(Oc2ccc3ccccc3n2)C1 (racemic) |  | > 12700 |  |  |  |  | > 439 | 2.9 |  |
| COc1ccccc1C(=O)N1CCC(F)(F)C(Oc2ccc3ccccc3n2)C1 (racemic) | Insoluble | > 2630 | Active | Active |  |  | > 110 | 24 | Active |
| O=C(c1cccc2cncn12)N1CCC(F)(F)C(Oc2ccc3ccccc3n2)C1 (racemic) |  | > 2100 |  |  |  |  | > 40 | 52 |  |
| O=C(c1ccccc1F)N1CCC(F)(F)C(Oc2ccc3ccccc3n2)C1 (racemic) | Insoluble | > 1770 | Active | Active |  |  | > 77 | 23 | Active |
| O=C(c1ccccc1-n1nccn1)N1CCC(F)(F)C(O)C1 (stereo unspecified) |  | > 3370 |  |  |  |  |  | 2240 |  |
| O=C(c1ccccc1-n1nccn1)N1CCC(F)(F)C(Oc2ccc3ccccc3n2)C1 (racemic) |  | 1140 |  |  |  |  | 292 | 3.9 |  |
| O=C(c1ccccc1-n1nccn1)N1CCC(F)(F)C(Oc2ccc3cccnc3n2)C1 (stereo unspecified) | Insoluble | > 1410 | Active | Active |  |  |  | 1160 | Active |
| O=C(c1cccc2nccn12)N1CCC(F)(F)C(Oc2ccc3ccccc3n2)C1 (racemic) |  | > 3330 |  |  |  |  | > 6 | 564 |  |

Now from value to compound, other results behind:

| solubility [1] | Ki (Orexin receptor type 2) [nM] | inhibition (INH) (Cytochrome P450 2C9) | inhibition (INH) (Cytochrome P450 3A4) | INH (Cytochrome P450 2C9) [µM] | INH (Cytochrome P450 3A4) [µM] | SMILES | Ratio Ki (CHO) | Ki [2] [nM] | inhibition (INH) [3] |
| --- | --- | --- | --- | --- | --- | --- | --- | --- | --- |
| Insoluble | > 4380 | Active | Active |  |  | O=C(c1ccc(F)cc1)N1CCC(F)(F)C(Oc2ccc3ccccc3n2)C1 (racemic) | > 4 | 1080 | Active |
|  | 108 |  |  |  |  | O=C(c1cncc2[nH]ccc12)N1CCC(F)(F)[C@@H](Oc2ccc3ccccc3n2)C1 | 386 | 0.28 |  |
|  | 11 |  |  |  |  | Cc1ccc(-c2ncccn2)c(C(=O)N2CC(COc3ccc(F)cn3)CC[C@H]2C)c1 (stereo partly specified) | 1.1 | 11 |  |
|  | 861 |  |  |  |  | O=C(c1cccc2ncccc12)N1CCC(F)(F)C(Oc2ccc3ccccc3n2)C1 (racemic) | 6.2 | 140 |  |
|  | 193 |  |  |  |  | O=C(c1cccc(-c2ncc[nH]2)c1)N1CCC(F)(F)[C@@H](Oc2ccc3ccccc3n2)C1 | 1000 to 1380 | 0.14 |  |
| Insoluble | 379 | Active | Active |  |  | O=C(c1ccccc1-n1nccn1)N1CCC(F)(F)C(Oc2cc3ccccc3cn2)C1 (stereo unspecified) | 6.4 | 59 | Active |
| Insoluble | > 2630 | Active | Active |  |  | Cc1ccccc1C(=O)N1CCC(F)(F)C(Oc2ccc3ccccc3n2)C1 (racemic) | > 51 | 52 | Active |
| Insoluble | 933 | Active | Active |  |  | O=C(c1ccccc1-n1nccn1)N1CCC(F)(F)C(Oc2cnc3ccccc3n2)C1 (stereo unspecified) | 72 | 13 | Active |
| Insoluble | 1470 | Active | Active |  |  | O=C(c1ccccc1-n1nccn1)N1CCC(F)(F)C(Oc2ncc3ccccc3n2)C1 (stereo unspecified) | 113 | 13 | Active |
|  | 281 |  |  |  |  | O=C(c1ccccc1-c1ncccn1)N1CCC(F)(F)[C@@H](Oc2ccc3ccccc3n2)C1 | 156 | 1.8 |  |
| Insoluble | 1230 |  |  | 10.8 | 6.7 | COc1ccc(F)c(C(=O)N2CCC(F)(F)[C@@H](Oc3ccc4ccccc4n3)C2)c1F | 1120 | 1.1 | Active |
|  | 27 |  |  |  |  | O=C(c1ccccc1-n1nccn1)N1CCC[C@@H](Oc2ccc3ccccc3n2)C1 | 19 | 1.4 |  |
| Insoluble | 1620 |  |  | 10.8 | 6.7 | COc1ccc(F)c(C(=O)N2CCC(F)(F)C(Oc3ccc4ccccc4n3)C2)c1 (racemic) | 476 | 3.4 | Active |
| Insoluble | 2.8 | Active | Active |  |  | O=C(c1ccccc1-n1nccn1)N1CCC(F)(F)C(Oc2nccc3ccccc23)C1 (stereo unspecified) | 0.43 | 6.5 | Active |
|  | > 5870 |  |  |  |  | O=C(c1ccnc2[nH]cnc12)N1CCC(F)(F)C(Oc2ccc3ccccc3n2)C1 (racemic) | > 65 | 89 |  |
|  | 9 |  |  |  |  | C[C@@H]1CC[C@@H](Oc2ccc3ccccc3n2)CN1C(=O)c1ccccc1-n1nccn1 | 2.3 | 3.9 |  |
